This note sets out measurements from US20140066365A1, “USE OF CALIXARENES ASSOCIATED WITH AN ANTIBIOTIC IN THE TREATMENT OF BACTERIAL INFECTIONS” (priority 2011, published 2014).

Converted amounts (≈) assume the structure as drawn. Read-outs that look alike come from different tables or passages of the source. Some results are limits rather than exact numbers.

What all share (format): cell-based
Experiment [1] deals with ESBL-producing strain of Escherichia coli, having an associated resistance to the aminoglycosides (EcR3). The experiment can be described thus: MIC of the compounds used alone, microdilution in a liquid medium (CLSI). Conditions: Escherichia coli, antibiotic alone (second value of cell), read-out: Initial MICs. The source says: (§1) The MICs of the antibiotics were previously defined for each strain, by the method of microdilution in a liquid medium (CLSI (Clinical and Laboratory Standards Institute), 2003).
(In general: Dilution methods test growth across graded concentrations, often in twofold steps.)

Experiment [2] relates to Escherichia coli strain ATCC 25922 (wild type). The description is as above. Conditions: Escherichia coli, ATCC25922; antibiotic alone (second value of cell); E. coli ATCC 25922; read-out: Initial MICs.
Source text: as §1

The test system of experiment [3] is cephalosporinase-hyperproducing strain of Escherichia coli (EcR2). The experiment is described as above. Conditions: Escherichia coli, antibiotic alone (second value of cell), read-out: Initial MICs.
Source text: as §1

The test system of experiment [4] is penicillinase-producing strain of Escherichia coli without associated resistance (EcR1). Described as above. Conditions: Escherichia coli, antibiotic alone (second value of cell), read-out: Initial MICs.
Source text: as §1

Experiment [5] deals with EcR1: Penicillinase-Producing Escherichia coli without Associated Resistance. The experiment can be described thus: Antibiogram, MIC by the VITEK 2 system. Conditions: for CA-SFM Interpretation: EcR1, MIC against Cc CA-SFM 2011; for CLSI Interpretation: EcR1, MIC against Cc CLSI 2011; for EUCAST Interpretation: EcR1, MIC against Cc EUCAST 2011; for Results: EcR1, interpretation of the MIC, Table A1; for MIC: Escherichia coli. As for the experimental part: (§2) 5.1 EcR1: Penicillinase-Producing Escherichia coli without Associated Resistance The bacterial and antibiogramidentification is carried out by the VITEK 2 system (bioMérieux) and by the disk diffusion technique.

The test system is the same in experiment [6]. The experiment can be described thus: Antibiogram by the disk diffusion technique. Conditions: for Diameter: EcR1, disk diffusion; for Diameter / Results: Table A1; for Results: EcR1, interpretation of the diameter against Dmin Dmax. The protocol:
as §2
(A growth-free zone around the sample is the usual read-out of agar diffusion tests.)

Experiment [7] has as its system EcR2: Cephalosporinase-Hyperproducing Strain of Escherichia coli. The experiment can be described thus: Antibiogram, MIC by the VITEK 1 system. Conditions: for MIC: Escherichia coli, read-out: MIC. The protocol:
The bacterial and antibiogramidentification is carried out by the VITEK 1 system (bioMérieux) and by the disk diffusion technique

Experiment [8] has as its system EcR3: ESBL-Producing Escherichia coli. The experiment can be described thus: Antibiogram by the disk diffusion technique. Conditions: for CA-SFM Interpretation: Cd CA-SFM 2011; for CLSI Interpretation: Cd CLSI 2011; for EUCAST Interpretation: Cd EUCAST 2011; for Diameter: Table C1; for Results: Table C1, against Dmin Dmax; for diameter in mm: Table C2. As for the experimental part:
The bacterial and antibiogramidentification is carried out by the VITEK 2 system (bioMerieux) and by the disk diffusion technique

The test system of experiment [9] is SaR1: Meticillin-Resistant Staphylococcus aureus without Associated Resistance. The experiment can be described thus: Antibiogram, MIC by the VITEK 2 system. Conditions: SaR1. As for the experimental part: (§3) The bacterial and antibiogramidentification is carried out by the VITEK 2 system (bioMérieux)
Experiment [10] has as its system SaR3: Meticillin-Resistant Staphylococcus aureus. The experiment can be described thus: Antibiogram by the disk diffusion technique. Conditions: for Diameter: Table E1; for diameter in mm: Table E2. The protocol: (§4) The bacterial and antibiogramidentification is carried out by the VITEK 2 system (bioMérieux) and by the disk diffusion technique
Experiment [11] relates to SaR4: Meticillin-Resistant Staphylococcus aureus. The experiment can be described thus: Antibiogram by the disk diffusion technique. The protocol: as §4
Experiment [12] deals with SaR1: Meticillin-Resistant Staphylococcus aureus without Associated Resistance. The experiment can be described thus: Antibiogram, inhibition diameter (Table D1). As for the experimental part:
as §3

Experiment [13] deals with PaR3: Pseudomonas aeruginosa. The experiment can be described thus: Antibiogram, MIC by the VITEK 2 system. As for the experimental part: as §3
The subject of experiment [14] is PaR5: Pseudomonas aeruginosa. The experiment can be described thus: Antibiogram by the disk diffusion technique. Conditions: for diameter in mm: disk diffusion inhibition diameter, strain PaR5. The protocol: as §4
Experiment [15] deals with SaR4: Meticillin-Resistant Staphylococcus aureus. The experiment can be described thus: Antibiogram, MIC by the VITEK 2 system. Conditions: SaR4. The protocol:
as §4

Experiment [16] concerns PaR2: Pseudomonas aeruginosa. Conditions: for Diameter: Table G1; for diameter in mm: Table G2. The protocol: as §4
Setting [17] is: EcR1, Table A2, read-out: MIC mg/L (diameter in mm).
Setting [18] is: EcR1, VITEK 2, Table A1, read-out: MIC.
Where [19] appears, read: Staphylococcus aureus, Table D1, read-out: MIC.
Setting [20] is: Pseudomonas aeruginosa, Table H2, read-out: MIC.
The mark [21] stands for this setting: Staphylococcus aureus, Table F1, read-out: MIC.
[22] abbreviates: Staphylococcus aureus, Table F2, MIC, read-out: MIC.

For the compound `CC1(C)S[C@@H]2[C@H](NC(=O)[C@H](N)c3ccc(O)cc3)C(=O)N2[C@H]1C(=O)O` [Amoxicillin], the MIC in experiment [1] is more than 256 µg/mL; in experiment [2], 4 µg/mL; in experiment [3], 256 µg/mL; in [4] it was more than 256 µg/mL; in [5] (setting [17]), not below 32 mg/L; in experiment [5] (setting [18]), not below 32 mg/L. The MIC was not below 32 µg/mL in [7] (EcR2, VITEK 1, Table B1) and not below 32 µg/mL in experiment [7] (EcR2, Table B2, MIC). For the same compound, the “CA-SFM Interpretation” value is “Resistant” in experiment [5]; “Resistant” in experiment [7] (EcR2, from MIC, Cc CA-SFM 2011); “Resistant” in experiment [8]. For the same compound, the “CLSI Interpretation” value in experiment [5] is “Resistant”; in experiment [7] (EcR2, from MIC, Cc CLSI 2011), “Resistant”; in [8], “Resistant”. Moreover, the “EUCAST Interpretation” value is listed as “Resistant” in [5]; “Resistant” in experiment [7] (EcR2, from MIC, Cc EUCAST 2011); “Resistant” in [8]. For the same compound, the Results result is reported as “Resistant” in experiment [5]; “Resistant” in experiment [6]; “Resistant” in [7] (EcR2, Table B1); “Resistant” in experiment [8]. In addition, the Diameter in [6] and in experiment [8] was 6 mm throughout. Also, the diameter in mm in experiment [8] turned out to be 6 mm.

As to `C[C@@H](O)[C@H]1C(=O)N2C(C(=O)O)=C(S[C@@H]3CN[C@H](C(=O)Nc4cccc(C(=O)O)c4)C3)[C@H](C)[C@H]12` [Ertapenem], the MIC in experiment [1] came to 0.0015 µg/mL; in [2] it was 0.015 µg/mL; in experiment [3], 0.03 µg/mL; in [4] it was 0.015 µg/mL.

Turning to `NC[C@H]1O[C@H](O[C@H]2[C@H](O)[C@@H](O[C@H]3O[C@H](CO)[C@@H](O)[C@H](N)[C@H]3O)[C@H](N)C[C@@H]2N)[C@H](O)[C@@H](O)[C@@H]1O` [Kanamycin], the “MIC mg/L” value in experiment [9] (Table D2) is “≦4 mg/L”. Further, the MIC in experiment [9] (setting [19]) is not above 4 µg/mL. For the same compound, the Diameter was found to be 6 mm in experiment [10]; 7 in experiment [11] (Table F1); 7 mm in [11] (Table F2, diameters); 20 mm in experiment [12]. In addition, the diameter in mm in [10] amounted to 6 mm.

Regarding `CN(C)c1ccc(O)c2c1C[C@H]1C[C@H]3[C@H](N(C)C)C(O)=C(C(N)=O)C(=O)[C@@]3(O)C(O)=C1C2=O` [Minocycline], in [6] (EcR1, cells that print a diameter, Table A2), the “MIC mg/L (diameter in mm)” value is given as 20 mm. Further, the Diameter in experiment [6] is 20 mm; in experiment [8], 21 mm; in experiment [14] (PaR5, Table I1), 11 mm; in experiment [10], 26 mm; in experiment [16] it was 6 mm; in experiment [12], 27 mm. Besides, the diameter in mm came out at 21 mm in experiment [8], 11 mm in [14], 26 mm in [10] and 6 mm in [16]. For the same compound, the MIC in experiment [13] (setting [20]) is 4 µg/mL (≈ 8.74 µM); in [13] (Table H1) it was 4 µg/mL (≈ 8.74 µM); in experiment [9] (setting [19]), not above 0.5 µg/mL; in experiment [15] (setting [21]), not above 4 µg/mL; in experiment [15] (setting [22]), not above 0.5 µg/mL. In addition, the “MIC mg/L” value in experiment [9] (Table D2) is given as “≦0.5 mg/L”.

For `CC1COc2c(N3CCN(C)CC3)c(F)cc3c(=O)c(C(=O)O)cn1c23` (stereo not shown) [Ofloxacin], the MIC was not above 0.25 mg/L in [5] (setting [17]); not above 0.25 mg/L in [5] (setting [18]); 1 µg/mL (≈ 2.77 µM) in [9] (Table D2); 1 µg/mL (≈ 2.77 µM) in [9] (setting [19]); not below 8 µg/mL in [15] (setting [21]); not below 8 µg/mL in experiment [15] (setting [22]). The Diameter amounted to 11 mm in [14] (PaR5, Table I1); 6 mm in experiment [10]; 24 mm in experiment [12]. This compound returned a diameter in mm in experiment [10] of 6 mm.

Regarding `CCN1CCN(C(=O)N[C@@H](C(=O)N[C@@H]2C(=O)N3[C@@H]2SC(C)(C)[C@@H]3C(=O)O)c2ccccc2)C(=O)C1=O` [Piperacillin], the MIC in [1] was 128 µg/mL; in experiment [2] it was 2 µg/mL; in experiment [3], 32 µg/mL; in experiment [4] it was 256 µg/mL; in experiment [5] (setting [17]), not above 8 mg/L; in [5] (setting [18]), not above 8 mg/L. The MIC in experiment [13] (setting [20]) was not below 128 µg/mL; in experiment [13] (Table H1), “≧128”. Moreover, the “CA-SFM Interpretation” value in experiment [5] is “Susceptible”; in experiment [8], “Resistant”; in experiment [13] (Cc CA-SFM 2011) it was “Resistant”; in experiment [14] (disk diffusion, PaR5, versus critical diameter CA-SFM 2011), “Susceptible”; in experiment [16] (Cd CA-SFM 2011), “Susceptible”. The “CLSI Interpretation” value is on record as “Susceptible” in experiment [5]; “Resistant” in experiment [8]; “Resistant” in [13] (Cc CLSI 2011); “Susceptible” in [14] (disk diffusion, PaR5, versus critical diameter CLSI 2011); “Susceptible” in experiment [16] (Cd CLSI 2011). In addition, the “EUCAST Interpretation” value was “Susceptible” in [5]; “Resistant” in [8]; “Resistant” in experiment [13] (Cc EUCAST 2011); “Susceptible” in experiment [14] (disk diffusion, PaR5, versus critical diameter EUCAST 2011, for ** antibiotics the disk load differs and the EUCAST interpretation is not applicable); “Susceptible” in [16] (Cd EUCAST 2011). In addition, the Results entry is listed as “Susceptible” in experiment [5]; “Intermediate” in experiment [6]; “Intermediate” in [8]; “Resistant” in experiment [13] (Table H1); “Susceptible” in [14] (PaR5, Table I1, against Dmin-Dmax); “Susceptible” in experiment [16] (Table G1, against Dmin-Dmax). Further, the Diameter in [6] was 17 mm; in experiment [8], 13 mm; in experiment [14] (PaR5, Table I1), 33 mm; in experiment [16], 22 mm. For the same compound, the diameter in mm in [8] turned out to be 13 mm; in experiment [14], 33 mm; in experiment [16] it was 22 mm.

For Teicoplanin, the “CA-SFM Interpretation” value in experiment [9] (Cc CA-SFM 2011) is listed as “Susceptible”; in experiment [10] (Cd CA-SFM 2011), “Susceptible”; in [15] (from MIC, Cc CA-SFM 2011), “Susceptible”. The “CLSI Interpretation” value is given as “Susceptible” in [9] (Cc CLSI 2011); “Susceptible” in [10] (Cd CLSI 2011); “Susceptible” in experiment [15] (from MIC, Cc CLSI 2011). Also, the “EUCAST Interpretation” value in [9] (Cc EUCAST 2011) was “Susceptible”; in experiment [15] (from MIC, Cc EUCAST 2011), “Susceptible”. Besides, the results for the “MIC mg/L” value in [9] (Table D1), in [9] (Table D2) and in experiment [15] (Table F1) were “≦0.5 mg/L”, “≦0.5 mg/L” and “≦4 mg/L”, respectively. Moreover, the Results result was “Susceptible” in [9] (Table D1, from MIC); “Susceptible” in experiment [10] (Table E1, against Dmin Dmax); “Susceptible” in [15] (Table F1, MIC); “Susceptible” in [12] (from diameter, against Dmin Dmax). In addition, in [10], the diameter in mm is reported as 27 mm. Further, in experiment [15] (Table F2, MIC), the MIC result is given as “≦4 mg/L”.
